Data published in patent publication US10457677B2 (priority 2015, dated 2019).
Like-named read-outs stand apart in the source and are kept apart here.

Experiments:
[1] = target: purified human recombinant ATM (ataxia telangiectasia mutated), full length (Homo sapiens (Human), UniProt Q13315); assay: ATM kinase assay - determination of ATM inhibition (IC50 ATM), TR-FRET; assay type: biochemical
Summary of the method: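 Full-length enzyme, expressed in a mammalian cell line, pre-incubated 15 min with inhibitor in 25 mM HEPES pH 8.0, 10 mM Mg(CH3COO)2, 1 mM MnCl2, 0,1% BSA, 0,01% Brij 35, 5 mM DTT. Full-length cmyc-p53 (Sf21-expressed) and ATP then added, 30-35 min at 22° C. EDTA stop; p53 S15 phosphorylation read by TR-FRET antibodies.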

[2] = test system: phosphorylation of CHK2 (phospho-Thr68) in HCT116 cells; assay: Cellular pCHK2 assay: bleomycin-induced phosphorylation of CHK2 (phospho-Thr68), immunofluorescence high-content analysis; assay type: cell-based, human; settings: Homo sapiens, HCT-116, 4 h, read-out: IC50 (pCHK2)
Summary of the method: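 HCT116 cells in DMEM with 10% FCS, incubated overnight at 37° C, then given compounds (1 nM to 30 μM, 0.5% DMSO) together with 10 μM bleomycin. Phospho-Thr68 CHK2 immunostained and imaged by high-content imager; nuclei with pCHK2 above background counted, cell count from propidium iodide DNA stain.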

mTOR (human) = mTOR (human) (Homo sapiens (Human), UniProt P42345); assay: mTOR (human) kinase assay, [γ-33P-ATP] filter assay; assay type: biochemical
Summary of the method: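 Radiometric filter assay: enzyme in 50 mM HEPES pH 7.5, 1 mM EGTA, 0.01% Tween 20, 3 mM MnCl2, 2 mg/ml substrate with [γ-33P-ATP], started with MgATP. Incubated 40 min at room temperature, stopped with 3% phosphoric acid; incorporation measured on P30 filtermat by scintillation counting.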

PI3K p110α/p85α (human) = PI3K p110α/p85α (human) (Homo sapiens (Human), UniProt P42336); assay: PI3K p110α/p85α (human), non-radioactive assay (HTRF); assay type: biochemical; settings: read-out: IC50 (PI3Kalpha)
PI3K p110β/p85α (human) = PI3K p110β/p85α (human) (Homo sapiens (Human), UniProt P42338); assay: PI3K p110β/p85α (human), non-radioactive assay (HTRF); assay type: biochemical; settings: read-out: IC50 (PI3Kbeta)
Summary of the method: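 Human p110β/p85α incubated with 10 μM phosphatidylinositol 4,5-bisphosphate and MgATP for 30 min at room temperature, stopped with EDTA plus biotinylated PIP3. HTRF detection used a Eu-anti-GST antibody, GST-GRP1 PH domain and streptavidin-APC, with signal taken as 10000×(Em665nm/Em620nm).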

PI3K p110δ/p85α (human) = PI3K p110δ/p85α (human) (Homo sapiens (Human), UniProt O00329); assay: PI3K p110δ/p85α (human), non-radioactive assay (HTRF); assay type: biochemical; settings: read-out: IC50 (PI3Kdelta)
PI3K (p120γ) (human) = PI3K (p120γ) (human) (Homo sapiens (Human), UniProt P48736); assay: PI3K (p120γ) (human), non-radioactive assay (HTRF); assay type: biochemical; settings: read-out: IC50 (PI3Kgamma)
Summary of the method: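 Enzyme was run with 10 μM phosphatidylinositol 4,5-bisphosphate, starting the reaction with MgATP at an unspecified level, for 30 min at room temperature. The stop used EDTA plus biotinylated PIP3, and detection used Eu-anti-GST, GST-GRP1 PH domain and streptavidin-APC. Signal was taken as HTRF = 10000×(Em665nm/Em620nm).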

PI3K (p120γ) (human), sequence (P48736 whole entry, the tested form may be a part): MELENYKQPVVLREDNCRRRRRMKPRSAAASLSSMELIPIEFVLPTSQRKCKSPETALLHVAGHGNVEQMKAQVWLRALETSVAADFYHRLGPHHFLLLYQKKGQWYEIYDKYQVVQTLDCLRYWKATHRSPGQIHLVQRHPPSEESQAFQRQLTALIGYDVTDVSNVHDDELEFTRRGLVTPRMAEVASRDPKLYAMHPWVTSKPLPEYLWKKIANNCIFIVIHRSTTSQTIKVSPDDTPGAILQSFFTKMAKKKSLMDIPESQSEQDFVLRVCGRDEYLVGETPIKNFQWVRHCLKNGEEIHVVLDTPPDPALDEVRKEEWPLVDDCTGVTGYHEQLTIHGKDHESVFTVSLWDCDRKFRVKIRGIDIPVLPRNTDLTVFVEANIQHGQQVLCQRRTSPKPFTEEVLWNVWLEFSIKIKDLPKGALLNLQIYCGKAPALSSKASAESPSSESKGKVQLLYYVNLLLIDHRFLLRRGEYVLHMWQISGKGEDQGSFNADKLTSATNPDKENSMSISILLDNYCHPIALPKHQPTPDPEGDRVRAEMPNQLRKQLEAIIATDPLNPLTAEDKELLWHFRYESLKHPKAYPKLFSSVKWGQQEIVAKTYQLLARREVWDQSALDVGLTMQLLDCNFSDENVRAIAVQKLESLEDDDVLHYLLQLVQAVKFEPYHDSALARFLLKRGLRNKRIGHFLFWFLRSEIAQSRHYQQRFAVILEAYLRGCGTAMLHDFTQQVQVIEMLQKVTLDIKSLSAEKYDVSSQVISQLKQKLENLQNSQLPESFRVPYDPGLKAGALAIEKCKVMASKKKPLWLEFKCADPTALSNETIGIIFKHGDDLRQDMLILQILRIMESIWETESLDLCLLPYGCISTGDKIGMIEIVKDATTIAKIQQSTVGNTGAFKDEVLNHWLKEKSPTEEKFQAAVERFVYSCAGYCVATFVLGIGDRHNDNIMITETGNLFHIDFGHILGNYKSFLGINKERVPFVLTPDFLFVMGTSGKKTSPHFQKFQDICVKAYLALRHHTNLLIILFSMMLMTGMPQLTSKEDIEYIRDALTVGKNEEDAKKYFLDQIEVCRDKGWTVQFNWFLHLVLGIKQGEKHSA
PI3K p110δ/p85α (human), sequence (O00329 whole entry): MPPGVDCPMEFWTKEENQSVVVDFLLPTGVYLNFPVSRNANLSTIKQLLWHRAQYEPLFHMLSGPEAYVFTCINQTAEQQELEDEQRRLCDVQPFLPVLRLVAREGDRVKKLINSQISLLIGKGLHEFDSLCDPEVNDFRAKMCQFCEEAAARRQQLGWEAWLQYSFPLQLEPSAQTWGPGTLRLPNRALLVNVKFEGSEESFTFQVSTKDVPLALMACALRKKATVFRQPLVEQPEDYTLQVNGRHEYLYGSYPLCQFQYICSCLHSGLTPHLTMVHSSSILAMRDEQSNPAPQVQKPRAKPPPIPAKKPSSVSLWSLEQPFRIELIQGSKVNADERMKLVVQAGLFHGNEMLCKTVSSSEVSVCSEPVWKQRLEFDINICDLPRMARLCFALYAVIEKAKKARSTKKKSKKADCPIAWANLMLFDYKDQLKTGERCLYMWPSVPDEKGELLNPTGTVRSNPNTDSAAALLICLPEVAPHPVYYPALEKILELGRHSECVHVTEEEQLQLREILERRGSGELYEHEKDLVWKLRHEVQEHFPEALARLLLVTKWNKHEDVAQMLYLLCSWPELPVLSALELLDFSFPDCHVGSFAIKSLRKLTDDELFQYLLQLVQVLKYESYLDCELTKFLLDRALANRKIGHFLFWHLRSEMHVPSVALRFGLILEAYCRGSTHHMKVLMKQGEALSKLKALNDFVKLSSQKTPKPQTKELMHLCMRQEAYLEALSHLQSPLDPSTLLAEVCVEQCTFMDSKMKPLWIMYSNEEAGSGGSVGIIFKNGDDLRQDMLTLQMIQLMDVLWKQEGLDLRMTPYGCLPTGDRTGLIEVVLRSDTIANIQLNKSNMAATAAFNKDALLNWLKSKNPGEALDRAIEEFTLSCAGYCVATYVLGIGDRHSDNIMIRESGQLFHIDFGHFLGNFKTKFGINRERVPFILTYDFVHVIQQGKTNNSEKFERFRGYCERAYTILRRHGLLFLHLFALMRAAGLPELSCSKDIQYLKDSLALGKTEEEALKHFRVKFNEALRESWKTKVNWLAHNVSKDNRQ
PI3K p110δ/p85α (human), sequence (P27986 whole entry partner): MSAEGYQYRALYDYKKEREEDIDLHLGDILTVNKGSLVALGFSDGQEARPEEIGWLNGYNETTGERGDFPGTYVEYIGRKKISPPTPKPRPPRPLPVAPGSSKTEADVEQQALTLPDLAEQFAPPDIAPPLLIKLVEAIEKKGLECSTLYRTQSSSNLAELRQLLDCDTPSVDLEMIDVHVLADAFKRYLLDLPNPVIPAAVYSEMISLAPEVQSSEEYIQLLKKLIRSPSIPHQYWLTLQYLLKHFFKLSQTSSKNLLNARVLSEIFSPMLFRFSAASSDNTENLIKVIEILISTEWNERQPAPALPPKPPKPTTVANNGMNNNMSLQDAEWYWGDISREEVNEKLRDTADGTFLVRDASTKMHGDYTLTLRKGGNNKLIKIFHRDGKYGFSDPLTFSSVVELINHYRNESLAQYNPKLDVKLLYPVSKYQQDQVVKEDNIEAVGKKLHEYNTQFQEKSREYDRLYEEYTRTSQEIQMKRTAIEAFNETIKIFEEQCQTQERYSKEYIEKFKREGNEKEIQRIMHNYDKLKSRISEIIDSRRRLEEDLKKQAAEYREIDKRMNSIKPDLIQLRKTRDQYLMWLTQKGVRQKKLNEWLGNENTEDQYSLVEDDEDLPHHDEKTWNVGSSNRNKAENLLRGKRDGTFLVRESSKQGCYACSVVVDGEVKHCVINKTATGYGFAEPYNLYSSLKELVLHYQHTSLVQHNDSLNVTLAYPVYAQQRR
PI3K p110α/p85α (human), sequence (P42336 whole entry): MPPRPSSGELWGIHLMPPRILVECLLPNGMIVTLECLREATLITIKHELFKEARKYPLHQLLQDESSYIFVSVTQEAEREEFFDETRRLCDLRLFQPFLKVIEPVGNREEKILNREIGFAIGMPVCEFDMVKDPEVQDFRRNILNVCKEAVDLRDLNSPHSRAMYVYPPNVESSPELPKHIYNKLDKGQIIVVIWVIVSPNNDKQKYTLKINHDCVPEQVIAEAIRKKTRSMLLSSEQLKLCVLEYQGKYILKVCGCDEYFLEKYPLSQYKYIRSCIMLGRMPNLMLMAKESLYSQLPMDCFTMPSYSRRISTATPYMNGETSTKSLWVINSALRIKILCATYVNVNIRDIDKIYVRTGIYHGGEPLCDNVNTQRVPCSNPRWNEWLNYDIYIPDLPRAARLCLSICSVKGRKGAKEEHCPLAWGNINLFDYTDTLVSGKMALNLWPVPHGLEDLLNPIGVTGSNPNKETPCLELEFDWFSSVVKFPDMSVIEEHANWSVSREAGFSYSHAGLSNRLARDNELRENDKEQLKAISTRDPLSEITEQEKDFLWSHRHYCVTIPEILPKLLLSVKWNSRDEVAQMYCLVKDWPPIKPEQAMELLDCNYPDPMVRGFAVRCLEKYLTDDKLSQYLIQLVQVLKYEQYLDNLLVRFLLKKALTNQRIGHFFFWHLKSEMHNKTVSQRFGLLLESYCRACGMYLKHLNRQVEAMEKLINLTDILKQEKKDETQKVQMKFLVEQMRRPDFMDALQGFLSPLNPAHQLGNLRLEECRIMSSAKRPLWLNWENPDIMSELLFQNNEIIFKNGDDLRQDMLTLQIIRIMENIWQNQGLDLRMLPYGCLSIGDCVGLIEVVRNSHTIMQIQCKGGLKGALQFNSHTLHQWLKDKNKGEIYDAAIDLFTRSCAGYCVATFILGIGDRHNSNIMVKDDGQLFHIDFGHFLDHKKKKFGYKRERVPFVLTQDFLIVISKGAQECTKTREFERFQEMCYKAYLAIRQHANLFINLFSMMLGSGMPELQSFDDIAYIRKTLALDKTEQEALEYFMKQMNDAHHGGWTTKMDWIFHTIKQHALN
PI3K p110α/p85α (human), sequence (P27986 whole entry partner): as the sequence (P27986 whole entry partner) above
PI3K p110β/p85α (human), sequence (P42338 whole entry, the tested form may be a part): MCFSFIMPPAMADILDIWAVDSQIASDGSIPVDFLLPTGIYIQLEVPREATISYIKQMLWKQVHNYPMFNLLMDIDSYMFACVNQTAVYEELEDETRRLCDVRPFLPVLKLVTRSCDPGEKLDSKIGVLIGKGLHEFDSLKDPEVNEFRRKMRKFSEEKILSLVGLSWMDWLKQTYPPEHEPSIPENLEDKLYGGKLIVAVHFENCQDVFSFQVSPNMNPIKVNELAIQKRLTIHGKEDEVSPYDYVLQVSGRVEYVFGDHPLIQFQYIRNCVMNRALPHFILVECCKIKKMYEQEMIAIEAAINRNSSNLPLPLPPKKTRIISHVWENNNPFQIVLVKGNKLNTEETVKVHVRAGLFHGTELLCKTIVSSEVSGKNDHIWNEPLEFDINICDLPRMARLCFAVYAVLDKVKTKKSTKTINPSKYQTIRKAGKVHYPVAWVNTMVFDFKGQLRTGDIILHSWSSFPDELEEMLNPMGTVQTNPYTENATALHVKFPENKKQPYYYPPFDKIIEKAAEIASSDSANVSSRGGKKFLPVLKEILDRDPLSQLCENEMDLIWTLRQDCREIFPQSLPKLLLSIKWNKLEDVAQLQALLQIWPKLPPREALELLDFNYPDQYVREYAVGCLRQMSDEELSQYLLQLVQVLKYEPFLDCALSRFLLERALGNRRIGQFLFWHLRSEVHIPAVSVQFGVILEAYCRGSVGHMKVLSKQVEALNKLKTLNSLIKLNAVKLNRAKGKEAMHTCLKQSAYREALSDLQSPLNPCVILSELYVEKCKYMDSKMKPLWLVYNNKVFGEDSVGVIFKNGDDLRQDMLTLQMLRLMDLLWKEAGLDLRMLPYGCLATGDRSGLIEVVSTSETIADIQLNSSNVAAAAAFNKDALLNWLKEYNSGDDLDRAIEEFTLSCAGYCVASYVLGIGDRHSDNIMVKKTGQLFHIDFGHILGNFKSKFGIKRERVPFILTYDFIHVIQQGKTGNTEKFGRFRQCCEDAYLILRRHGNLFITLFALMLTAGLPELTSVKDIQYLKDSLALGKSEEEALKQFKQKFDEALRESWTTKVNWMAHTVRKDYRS
PI3K p110β/p85α (human), sequence (P27986 whole entry partner, the tested form may be a part): as the sequence (P27986 whole entry partner) above

SMILES | IC50 [1] | IC50 ([1]; 10 μM ATP, substrate p53) | IC50 [2] | IC50 (mTOR (human)) | IC50 (PI3K p110α/p85α (human)) | IC50 (PI3K p110β/p85α (human)) | IC50 (PI3K p110δ/p85α (human)) | IC50 (PI3K (p120γ) (human))
COc1cc2ncc3c(c2cc1-c1cc(C)[nH]n1)n(-c1ncccc1F)c(=O)n3C [Compound Example 29, 1-(3-Fluoropyridin-2-yl)-7-methoxy-3-methyl-8-(5-methyl-1H-pyrazol-3-yl)-1,3-dihydroimidazo[4,5-c] quinolin-2-one] | < 0.01 µM | < 0.01 µM | < 0.2 µM | > 30 µM | > 30 µM | > 30 µM | > 30 µM | > 30 µM
COc1cc2ncc3c(c2cc1-c1cn(C)nc1C)n(-c1ncccc1F)c(=O)n3C [Compound Example 16, 8-(1,3-Dimethyl-1H-pyrazol-4-yl)-1-(3-fluoropyridin-2-yl)-7-methoxy-3-methyl-1,3-dihydroimidazo[4,5-c] quinolin-2-one] | < 0.001 µM | < 0.001 µM | < 0.2 µM | > 30 µM | > 30 µM | > 30 µM | > 30 µM | > 30 µM
COc1cc2ncc3c(c2cc1-c1cn[nH]c1)n(-c1ccnn1C)c(=O)n3C [Compound Example 41, 7-Methoxy-3-methyl-1-(2-methyl-2H-pyrazol-3-yl)-8-(1H-pyrazol-4-yl)-1,3-dihydroimidazo[4,5-c] quinolin-2-one] | < 0.01 µM | < 0.01 µM | 0.2 to 1 µM | > 10 µM | > 30 µM | > 30 µM | > 30 µM | > 30 µM
CCn1cc(-c2cc3c(cc2OC)ncc2c3n(-c3ccncc3)c(=O)n2C)cn1 [compound 62, 8-(1-Ethyl-1H-pyrazol-4-yl)-7-methoxy-3-methyl-1-pyridin-4-yl-1,3-dihydro-imidazo[4,5-c]quinolin-2-one] | < 0.01 µM | < 0.01 µM | 1 to 2 µM | > 30 µM | > 30 µM | > 30 µM | > 30 µM | > 30 µM
COc1cc2ncc3c(c2cc1-c1cnn(C)c1)n(-c1c(C)cncc1F)c(=O)n3C [Compound Example 18, 1-(3-Fluoro-5-methylpyridin-4-yl)-7-methoxy-3-methyl-8-(1-methyl-1H-pyrazol-4-yl)-1,3-dihydroimidazo[4,5-c] quinolin-2-one] | < 0.001 µM | < 0.01 µM | < 0.2 µM | > 5 µM | > 10 µM | > 30 µM | > 30 µM | > 5 µM
